Measurements as given in patent US7732456B2, “Pyridone derivative” (Banyu Pharmaceutical Co., Ltd., priority 2004, dated 2010).
Where two headings read alike, the source gives them in different places.

Legend:
human MCH-1R = biological target: T1, human MCH-1R (Homo sapiens, UniProt Q99705); assay: MCH binding inhibition test; details: membranes of CHO-K1 cells expressing human MCH-1R, 50 pM [125I]MCH, 25° C., an hour; read-out: IC50 (50% inhibition concentration to specific [125I]MCH binding)
T1 construct: expressed in transfected cells; host or cells: CHO-K1 (American Type Culture Collection), plasmid vector pEF/myc/cyto (Invitrogen)
T1 sequence (Q99705 whole entry): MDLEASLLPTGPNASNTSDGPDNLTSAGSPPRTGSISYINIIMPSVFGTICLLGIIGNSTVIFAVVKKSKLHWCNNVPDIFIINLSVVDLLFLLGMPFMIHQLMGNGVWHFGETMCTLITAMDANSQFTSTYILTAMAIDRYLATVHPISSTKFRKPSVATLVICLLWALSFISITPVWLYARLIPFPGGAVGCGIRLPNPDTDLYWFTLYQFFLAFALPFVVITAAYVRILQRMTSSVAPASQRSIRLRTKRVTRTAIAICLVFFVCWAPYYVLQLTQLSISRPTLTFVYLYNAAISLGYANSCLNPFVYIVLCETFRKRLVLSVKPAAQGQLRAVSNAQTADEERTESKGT
Experimental: The obtained expression vector was transfected to a host cell CHO-K1 (American Type Culture Collection) using Lipofectamine Plus Reagent (Life Technology Inc.) to provide MCH-1R expression cells.
After washing the glass filter with 50 mM Tris buffer (pH7.4) comprising 10 mM magnesium chloride, 2 mM ethylenediamine tetraacetate and 0.04% Tween-20, radiative activity on the glass filter was measured. […] MCH binding was determined.

[1] = Brain/cerebrospinal fluid migration test; type: in vivo; details: SD male rats, after 2 hours of oral administration (10 mg/kg); for concentration at 2 h: rat
Source text: A test compound was orally or intravenously administered to SD male rats (7 to 10 weeks-age, 200 to 400 g). Under anesthesia with ether for a predetermined period of time, from each of the rats whole blood was collected from its abdominal aorta using a heparin-processed syringe. Thereafter the brain skin was cut open and a 30 G needle for dental use was pierced between the cervical vertebrae and inserted into the subarachnoid cavity. Through the tube connected with the dental 30 G needle, 50-100 μL of the cerebrospinal fluid was collected into a 1-mL syringe, and then the brain was taken out. Each blood sample was centrifuged (4° C., 6,000 rpm,10 minutes) and the resulting plasma was stirred with three-fold the amount thereof of ethanol (including an internal standard substance). The brain sample was added with 2 mL of water and homogenized, a part of which was taken and stirred with three-fold the amount thereof of ethanol (including an internal standard substance). The cerebrospinal fluid was stirred with three-fold the amount thereof of ethanol (including an internal standard substance). Those samples were allowed to stand for 20 minutes at −20° C., and then centrifuged (4° C., 12,000 g, 10 minutes). The supernatant was analyzed through LC/MS/MS, and the concentration levels of the test compound in the plasma, in the brain and in the cerebrospinal fluid were quantified according to a relative calibration curve method.

[2] = Internal kinetics test (plasma concentration after oral or intravenous administration); type: in vivo; details: SD male rats fasted overnight
Experimental: A test compound was orally or intravenously administered to SD male rats (7 to 10 weeks-age, 200 to 400 g) which had fasted overnight, and within a predetermined period of time, about 100 μL of the blood per rat was collected via the tail vein, using a heparinized capillary. The blood was centrifuged (4° C., 6,000 rpm, 10 minutes) to provide plasma. To the plasma tree-fold the amount thereof of ethanol (including an internal standard substance) was added and stored, followed by standing at −20° C. for 20 minutes and then centrifuge (4° C., 10,000 rpm, 10 minutes). The supernatant was analyzed through LC/MS/MS, and the plasma concentration of the test compound was quantified according to a relative calibration curve method.

| IC50 (human MCH-1R) [nM] | Structure (SMILES) | also measured |
| --- | --- | --- |
| 3.5 | C[C@@H]1CC[C@@H](C)N1CCOc1ccc(-n2ccc(OCc3ccc(F)cc3)cc2=O)cc1 (relative stereo) [Example 32, 4-(4-Fluorobenzyloxy)-1-{4-[2-(trans-2,5-dimethyl-1-pyrrolidinyl)ethoxy]-phenyl}-1H-pyridin-2-one] | – |
| 9.5 | CN(C)CCOc1ccc(-n2ccc(OCc3ccccc3)cc2=O)cc1 [Example 1, 4-Benzyloxy-1-{4-[2-(dimethylamino)ethoxy]phenyl}-1H-pyridin-2-one] | brain concentration [1]: 2.33 nmol/g; concentration at 2 h ([1]; cerebrospinal fluid, read-out: cerebrospinal fluid concentration): 46 nM; concentration at 2 h ([1]; plasma, read-out: plasma concentration): 250 nM |
| 4.4 | O=c1cc(OCc2ccccc2)ccn1-c1ccc(OCCN2CCCCC2)cc1 [Example 2, 4-Benxyloxy-1-{4-[2-(1-piperidinyl)ethoxy]phenyl}-1H-pyridin-2-one] | – |
| 3.8 | CN(CCOc1ccc(-n2ccc(OCc3ccccc3)cc2=O)cc1)Cc1ccccc1 [Example 5, 4-Benzyloxy-1-(4-{2-[benzyl(methyl)amino]ethoxy}phenyl)-1H-pyridin-2-one] | – |
| – | O=c1cc(OCc2ccccc2)ccn1-c1ccc(OCCN2CCCC2)cc1 [Example 12, 4-Benzyloxy-1-{4-[2-(1-pyrrolidinyl)ethoxy]phenyl}-1H-pyridin-2-one] | melting point: 109 to 111 °C |
| 4.3 | O=c1cc(OCc2ccccc2)ccn1-c1ccc(O[C@@H]2CCN(C3CCCC3)C2)cc1 [Example 18, 4-Benzyloxy-1-(4-{[(3R)-1-cyclopentyl-3-pyrrolidinyl]oxy}-phenyl)-1H-pyridin-2-one] | – |
| 5.1 | CC(C)N1CC[C@@H](Oc2ccc(-n3ccc(OCc4ccccc4)cc3=O)cc2)C1 [Example 19, 4-Benzyloxy-1-(4-{[(3R)-1-isopropyl-3-pyrrolidinyl]oxy}phenyl)-1H-pyridin-2-one] | – |
| 2.9 | Cc1cc(-n2ccc(OCc3ccccc3)cc2=O)ccc1OCCN1CCCCC1 [Example 21] | – |
| 5.2 | O=c1cc(OCc2ccccc2)ccn1-c1ccc(OCCN2CCCC2)c(F)c1 [Example 23, 4-Benzyloxy-1-{3-fluoro-4-[2-(1-pyrrolidinyl)ethoxy]phenyl}-1H-pyridin-2-one] | – |
| 4.9 | O=c1cc(OCc2ccc(F)cc2)ccn1-c1ccc(OCCN2CCCCC2)cc1 [Example 28, 4-(4-Fluorobenzyloxy)-1-{4-[2-(1-piperidinyl)ethoxy]phenyl}-1H-pyridin-2-one] | – |
| 5.6 | O=c1cc(OCc2ccc(F)cc2)ccn1-c1ccc(OCCN2CCCC2)cc1 [Example 29, 4-(4-Fluorobenzyloxy)-1-{4-[2-(1-pyrrolidinyl)ethoxy]phenyl}-1H-pyridin-2-one] | half-value period in blood [2]: 3.9 h; bioavailability ([2]; rat, plasma, oral): 79% |
| 4.8 | CCN(CC)CCOc1ccc(-n2ccc(OCc3ccc(F)cc3)cc2=O)cc1 [Example 30, 1-{4-[2-(Diethylamino)ethoxy]phenyl}-4-(4-fluorobenzyloxy)-1H-pyridin-2-one] | – |
| – | O=c1cc(OCc2ccc(Cl)cn2)ccn1-c1ccc(OCCN2CCCC2)cc1 [Example 40, 4-[(5-Chloro-2-pyridinyl)methoxy]-1-{4-[2-(1-pyrrolidinyl)ethoxy]phenyl}-1H-pyridin-2-one] | melting point: 168 to 170 °C |
| 1.5 | O=c1cc(/C=C/c2ccc(F)cc2)ccn1-c1ccc(OCCN2CCCC2)cc1 [Example 45, 4-[(E)-2-(4-Fluorophenyl)vinyl]-1-{4-[2-(1-pyrrolidinyl)ethoxy]phenyl}-1H-pyridin-2-one] | – |
| 4.4 | O=c1cc(CCc2ccccc2)ccn1-c1ccc(OCCN2CCCC2)cc1 [Example 53, 4-(2-Phenylethyl)-1-{4-[2-(1-pyrrolidinyl)ethoxy]phenyl}-1H-pyridin-2-one] | – |
| 4.5 | O=c1cc(OCc2ccsc2)ccn1-c1ccc(OCCN2CCCC2)cc1 [Example 68, 1-{4-[2-(1-Pyrrolidinyl)ethoxy]phenyl}-4-(3-thienylmethoxy)-1H-pyridin-2-one] | – |
| 7 | COc1ccc(COc2ccn(-c3ccc(OCCN4CCCC4)cc3)c(=O)c2)cc1 [Example 73, 4-(4-Methoxybenzyloxy)-1-{4-[2-(1-pyrrolidinyl)ethoxy]phenyl}-1H-pyridin-2-one] | – |
| 4.2 | O=c1cc(OCc2cccc(Cl)c2)ccn1-c1ccc(OCCN2CCCC2)cc1 [Example 75, 4-(3-Chlorobenzyloxy)-1-{4-[2-(1-pyrrolidinyl)ethoxy]phenyl}-1H-pyridin-2-one] | – |
| 7.8 | CCN(CC)CCOc1ccc(-n2ccc(OCc3ccc(F)cc3)nc2=O)cc1 [Example 81] | – |
| 8.8 | O=c1cc(OCc2ccc(F)cc2)ccn1-c1ccc(O[C@@H]2C[C@H]3CCCN3C2)cc1 [Example 92, 4-(4-Fluorobenzyloxy)-1-{4-[(2R,7aR)-hexahydro-1H-pyrrolidin-2-yloxy]phenyl}-1H-pyridin-2-one] | – |
| – | O=C1CCCN1CCOc1ccc(-n2ccc(OCc3ccc(F)cc3)cc2=O)cc1 [Example 95, 4-(4-Fluorobenzyloxy)-1-{4-[2-(2-oxo-1-pyrrolidinyl)ethoxy]phenyl}-1H-pyridin-2-one] | melting point: 148 to 149 °C |
| 5.4 | CCN(C)CCOc1ccc(-n2ccc(OCc3ccc(Cl)cn3)cc2=O)cc1 [Example 114, 4-[(5-Chloro-2-pyridinyl)methoxy]-1-(4-{2-[ethyl(methyl)amino]ethoxy}-phenyl)-1H-pyridin-2-one] | – |
| 5.5 | CC(C)N(C)CCOc1ccc(-n2ccc(OCc3ccc(Cl)cn3)cc2=O)cc1 [Example 115, 4-[(5-Chloro-2-pyridinyl)methoxy]-1-(4-{2-[isopropyl(methyl)amino]ethoxy}-phenyl)-1H-pyridin-2-one] | melting point: 137 to 138 °C |
| – | CCCN(C)CCOc1ccc(-n2ccc(OCc3ccc(Cl)cn3)cc2=O)cc1 [Example 116, 4-[(5-Chloro-2-pyridinyl)methoxy]-1-(4-{2-[methyl(propyl)amino]ethoxy}-phenyl)-1H-pyridin-2-one] | melting point: 119 to 123 °C |
| – | CC(C)N1CC[C@@H](Oc2ccc(-n3ccc(OCc4ccc(Cl)cn4)cc3=O)cc2)C1 [Example 122, 4-[(5-Chloro-2-pyridinyl)methoxy]-1-(4-{[(3R)-1-isopropyl-3-pyrrolidinyl]-oxy}phenyl)-1H-pyridin-2-one] | melting point: 154 to 155 °C |
| – | CCN1CC[C@@H](Oc2ccc(-n3ccc(OCc4ccc(Cl)cn4)cc3=O)cc2)C1 [Example 123, 4-[(5-Chloro-2-pyridinyl)methoxy]-1-(4-{[(3R)-1-ethyl-3-pyrrolidinyl]-oxy}phenyl)-1H-pyridin-2-one] | melting point: 145 to 146 °C |
| 6.8 | CN1CC[C@@H](Oc2ccc(-n3ccc(OCc4ccc(Cl)cn4)cc3=O)cc2)C1 [Example 124, 4-[(5-Chloro-2-pyridinyl)methoxy]-1-(4-{[(3R)-1-methyl-3-pyrrolidinyl]-oxy}phenyl)-1H-pyridin-2-one] | – |
| 4.7 | O=c1cc(OCc2ccc(Cl)cn2)ccn1-c1ccc(OC[C@H]2CCCN2C2CCC2)cc1 [Example 133] | – |
| 8.6 | CN1CCC[C@H]1COc1ccc(-n2ccc(OCc3ccc(Cl)cn3)cc2=O)cc1 [Example 134, 4-[(5-Chloro-2-pyridinyl)methoxy]-1-(4-{[(2S)-1-methyl-2-pyrrolidinyl]-methoxy}phenyl)-1H-pyridin-2-one] | – |

| Structure (SMILES) | IC50 (human MCH-1R) [nM] | also measured |
| --- | --- | --- |
| O=c1cc(OCc2ccccc2)ccn1-c1ccc(OCCN2C3CCC2CC3)cc1 [Example 86, 1-{4-[2-(7-Azabicyclo[2.2.1]hept-7-yl)ethoxy]phenyl}-4-benzyloxy-1H-pyridin-2-one] | 1.9 | – |
| O=c1cc(OCc2ccc(F)cc2)ccn1-c1ccc(OCCN2C3CCC2CC3)cc1 [Example 90, 1-{4-[2-(7-Azabicyclo[2.2.1]hept-7-yl)ethoxy]phenyl}-4-(4-fluorobenzyloxy)-1H-pyridin-2-one] | 2.7 | – |
| O=c1cc(OCc2ccc(F)cc2)ccn1-c1ccc(OCCN2C3CCCC2CC3)cc1 [Example 91, 1-{4-[2-(8-Azabicylo[3.2.1]oct-8yl)ethoxy]phenyl}-4-(4-fluorobenzyloxy)-1H-pyridin-2-one] | 3.5 | – |
| CCN(CC)CCOc1ccc(-n2ccc(OCc3ccc(Cl)cn3)cc2=O)cc1 [Example 101] | 5.4 | melting point: 112 to 115 °C |
